Results on one compound are retold here after ChEMBL document CHEMBL3822373, “An evolved oxazolidinone with selective potency against Mycobacterium tuberculosis and gram positive bacteria” (2016).

Calls of active or inactive are those of the source. No cut-off for these calls is given here.

The assay relates to Mycobacterium tuberculosis. Put plainly: Antibacterial activity against Mycobacterium tuberculosis H37Rv assessed as frequency of spontaneous resistant mutant at 5 and 10 times MIC90 measured after 5 weeks. Format: functional, organism-based.

For `CC(=O)NC[C@H]1CN(c2ccc3c(c2)Oc2ccccc2O3)C(=O)O1`, the outcome was inactive.
